Laboratory results published in patent US12427144B2, “Compounds and methods for the targeted degradation of androgen receptor” (Arvinas Operations, Inc., priority 2019, dated 2025).

Biological target: T1, Androgen Receptor (AR) (Homo sapiens, UniProt P10275)
T1 construct: endogenous in cells; host or cells: VCaP
T1 sequence (P10275 1-920): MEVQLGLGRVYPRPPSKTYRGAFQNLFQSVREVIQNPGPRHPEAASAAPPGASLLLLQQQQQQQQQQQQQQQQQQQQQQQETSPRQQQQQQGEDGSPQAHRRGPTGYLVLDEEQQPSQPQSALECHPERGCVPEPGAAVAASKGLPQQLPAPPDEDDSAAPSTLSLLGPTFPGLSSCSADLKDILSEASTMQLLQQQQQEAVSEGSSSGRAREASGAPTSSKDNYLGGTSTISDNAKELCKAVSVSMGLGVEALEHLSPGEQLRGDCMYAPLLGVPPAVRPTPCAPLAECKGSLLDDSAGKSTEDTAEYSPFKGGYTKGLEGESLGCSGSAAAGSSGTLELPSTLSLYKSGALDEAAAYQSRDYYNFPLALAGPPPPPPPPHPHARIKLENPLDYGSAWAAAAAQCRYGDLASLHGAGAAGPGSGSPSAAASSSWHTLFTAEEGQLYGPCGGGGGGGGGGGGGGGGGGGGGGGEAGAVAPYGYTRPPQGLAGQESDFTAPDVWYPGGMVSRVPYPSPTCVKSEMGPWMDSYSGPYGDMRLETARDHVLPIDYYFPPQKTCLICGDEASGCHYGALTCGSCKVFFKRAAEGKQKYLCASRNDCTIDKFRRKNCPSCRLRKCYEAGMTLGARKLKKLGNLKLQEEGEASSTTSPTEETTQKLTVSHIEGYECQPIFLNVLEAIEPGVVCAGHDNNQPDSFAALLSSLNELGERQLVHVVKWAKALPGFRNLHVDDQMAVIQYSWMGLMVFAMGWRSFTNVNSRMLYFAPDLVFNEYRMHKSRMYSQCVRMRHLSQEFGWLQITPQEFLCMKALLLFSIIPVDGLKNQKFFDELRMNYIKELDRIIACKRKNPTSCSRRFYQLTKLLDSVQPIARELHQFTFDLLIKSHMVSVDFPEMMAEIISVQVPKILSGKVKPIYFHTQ
Assay: AR immunofluorescence staining, high content imager, VCaP cells
Format: cell-based
Conditions: for DC50: AR degradation by immunofluorescence; for Dmax: maximal AR degradation
Description: AR Immunofluorescence Staining of Cells for the High Content Imager was performed as follows: Following treatment of the cells with compound (using the central 60 wells of a 96-well plate), media was removed by aspiration, followed by addition of 50 μL per well of 4% paraformaldehyde (PFA) in PBS supplemented with 2 mM MgCl2 and 2 mM CaCl2. Fixed cells were incubated at RT for 15 minutes. For particularly low adherence cell lines (e.g., VCaP), a 2× solution of 8% PFA was added directly to wells instead. Cells were washed once with 200 μL PBS/well. To permeabilize cells 50 μL/well of 0.1% Triton X-100 in PBS was added and incubated for 5 minutes. Cells were washed once with 200 μL PBSS/well. 100 μL/well of Licor Odyssey Blocking Buffer was added for 1 hour at 20° C. Wells were aspirated and AR antibody (1:1000 in Licor Odyssey blocking buffer; 50 μL/well; CST 5153s) was added. Plates were incubated overnight at 4° C. Plates were washed 3 times with 200 EL PBS/well. The appropriate secondary antibody was added (50 μL/well; diluted in Licor Odyssey blocking buffer) and incubated for 1 hour at RT in the dark as prepared below using Anti-rabbit FITC (1:5000; […]) and Phalloidin-Alexafluor 648 (1:500; […]). Cells were washed once with 200 μL PBS/well. 50 μL DAPI or Hoechst 33342 diluted 1:1000 in Licor Odyssey blocking buffer was added to the wells. Cells were washed 3 times with 200 μL PBS/well. The plates were covered with a clear plastic sealer and refrigerated in the dark until ready to analyze. The cells were analyzed using a Molecular Devices IXM high content imager and analyzed using Molecular Devices metaXpress software suite.

Row | SMILES | DC50 [nM] | Dmax [%]
1 | COc1cc(O[C@H]2C(C)(C)[C@H](NC(=O)c3ccc(N4CCC(CN5CCN(c6ccc(C(=O)N[C@H]7CCC(=O)NC7=O)cn6)CC5)CC4)cc3)C2(C)C)ccc1C#N [Compound 42, N-[(3S)-2,6-dioxopiperidin-3-yl]-6-(4-{[1-(4-{[(1r,3r)-3-(4-cyano-3-methoxyphenoxy)-2,2,4,4-tetramethylcyclobutyl]carbamoyl}phenyl)piperidin-4-yl]methyl}piperazin-1-yl)pyridine-3-carboxamide] | < 1 | ≥ 70
2 | N#Cc1ccc(O[C@H]2CC[C@H](NC(=O)c3ccc(N4CCC(CN5CCN(c6ccc(C(=O)NC7CCC(=O)NC7=O)nn6)CC5)CC4)nn3)CC2)cc1Cl (stereo partly drawn) [Compound 28, N-[4-(3-chloro-4-cyano-phenoxy)cyclohexyl]-6-[4-[[4-[6-[(2,6-dioxo-3-piperidyl)carbamoyl]pyridazin-3-yl]piperazin-1-yl]methyl]-1-piperidyl]pyridazine-3-carboxamide] | < 1 | ≥ 70
3 | COc1cc(O[C@H]2C(C)(C)[C@H](NC(=O)c3ccc(N4CCC5(CC4)CN([C@H]4C[C@H](Oc6ccc(C(=O)N[C@H]7CCC(=O)NC7=O)c(OC)c6)C4)CCO5)cc3)C2(C)C)ccc1C#N [Compound 34, 4-[3-[9-[4-[[3-(4-cyano-3-methoxy-phenoxy)-2,2,4,4-tetramethyl-cyclobutyl]carbamoyl]phenyl]-1-oxa-4,9-diazaspiro[5.5]undecan-4-yl]cyclobutoxy]-N-[(3S)-2,6-dioxo-3-piperidyl]-2-methoxy-benzamide] | < 1 | ≥ 70
4 | COc1cc(O[C@H]2C[C@H](N3CCOC4(CCN(c5ccc(C(=O)N[C@H]6C(C)(C)[C@H](Oc7cc(C)c(C#N)c(C)c7)C6(C)C)cc5)CC4)C3)C2)ccc1C(=O)N[C@H]1CCC(=O)NC1=O [Compound 35, 4-[3-[9-[4-[[3-(4-cyano-3,5-dimethyl-phenoxy)-2,2,4,4-tetramethyl-cyclobutyl]carbamoyl]phenyl]-1-oxa-4,9-diazaspiro[5.5]undecan-4-yl]cyclobutoxy]-N-[(3S)-2,6-dioxo-3-piperidyl]-2-methoxy-benzamide] | < 1 | ≥ 70
5 | COc1cc(O[C@H]2C[C@H](N3CCOC4(CCN(c5ccc(C(=O)N[C@H]6C(C)(C)[C@H](Oc7cc(C)c(C#N)c(C)c7)C6(C)C)cc5)CC4)C3)C2)cc(C(=O)NC2CCC(=O)NC2=O)c1 (stereo partly drawn) [Compound 76, N-(2,6-dioxopiperidin-3-yl)-3-methoxy-5-[(1r,3r)-3-[9-(4-{[(1r,3r)-3-(4-cyano-3,5-dimethylphenoxy)-2,2,4,4-tetramethylcyclobutyl]carbamoyl}phenyl)-1-oxa-4,9-diazaspiro[5.5]undecan-4-yl]cyclobutoxy]benzamide] | 1 to 10 | < 50
6 | CN(C(=O)c1ccc(N2CCN(CC3CCN(c4ccc(C(=O)N[C@H]5CC[C@H](Oc6ccc(C#N)c(Cl)c6)CC5)nn4)CC3)CC2)cc1F)C1CCC(=O)NC1=O (stereo partly drawn) [Compound 31, N-((1R,4R)-4-(3-chloro-4-cyanophenoxy)cyclohexyl)-6-(4-((4-(4-((2,6-dioxopiperidin-3-yl)(methyl)carbamoyl)-3-fluorophenyl)piperazin-1-yl)methyl)piperidin-1-yl)pyridazine-3-carboxamide] | < 1 | 50 to 70
7 | COc1cc(O[C@H]2C(C)(C)[C@H](NC(=O)c3ccc(N4CCC(CN5CCN(c6ccc(C(=O)N[C@H]7CCC(=O)NC7=O)nc6)CC5)CC4)cc3)C2(C)C)ccc1C#N [Compound 40, 5-[4-[[1-[4-[[3-(4-cyano-3-methoxy-phenoxy)-2,2,4,4-tetramethyl-cyclobutyl]carbamoyl]phenyl]-4-piperidyl]methyl]piperazin-1-yl]-N-[(3S)-2,6-dioxo-3-piperidyl]pyridine-2-carboxamide] | < 1 | ≥ 70
8 | Cc1cc(O[C@H]2C(C)(C)[C@H](NC(=O)c3ccc(N4CCC(CN5CCN(c6ccc(C(=O)N[C@H]7CCC(=O)NC7=O)cn6)CC5)CC4)cc3)C2(C)C)cc(C)c1C#N [Compound 46] | < 1 | ≥ 70

Now from value to compound:

Row | DC50 [nM] | Dmax [%] | SMILES
9 | < 1 | 50 to 70 | CC(C)N(CC1CCN(c2cnc(C(=O)N[C@H]3CC[C@H](Oc4ccc(C#N)c(Cl)c4)CC3)cn2)CC1)[C@H]1C[C@H](Oc2ccc(C(=O)NC3CCC(=O)NC3=O)c(F)c2)C1 (stereo partly drawn) [Compound 25, N-((1R,4R)-4-(3-chloro-4-cyanophenoxy)cyclohexyl)-5-(4-((((1R,3R)-3-(4-((2,6-dioxopiperidin-3-yl)carbamoyl)-3-fluorophenoxy)cyclobutyl)(isopropyl)amino)methyl)piperidin-1-yl)pyrazine-2-carboxamide]
10 | < 1 | ≥ 70 | Cc1cc(O[C@H]2C(C)(C)[C@H](NC(=O)c3ccc(N4CCC(CN5CCN(c6ccc(C(=O)NC7CCC(=O)NC7=O)c(F)c6)CC5)CC4)cc3)C2(C)C)cc(C)c1C#N (stereo partly drawn) [Compound 20, 4-(4-((1-(4-(((1R,3R)-3-(4-cyano-3,5-dimethylphenoxy)-2,2,4,4-tetramethylcyclobutyl)carbamoyl)phenyl)piperidin-4-yl)methyl)piperazin-1-yl)-N-(2,6-dioxopiperidin-3-yl)-2-fluorobenzamide]
11 | < 1 | ≥ 70 | COCCN(C[C@H]1CN(c2ccc(C(=O)N[C@H]3C(C)(C)[C@@H](Oc4cc(C)c(C#N)c(C)c4)C3(C)C)cc2)CCO1)[C@H]1C[C@H](Oc2ccc(C(=O)N[C@@H]3CCC(=O)NC3=O)c(F)c2)C1 [Compound 51, 4-[(2S)-2-{[(2-methoxyethyl)[(1r,3r)-3-(4-{[(3R)-2,6-dioxopiperidin-3-yl]carbamoyl}-3-fluorophenoxy)cyclobutyl]amino]methyl}morpholin-4-yl]-N-[(1r,3r)-3-(4-cyano-3,5-dimethylphenoxy)-2,2,4,4-tetramethylcyclobutyl]benzamide]
12 | < 1 | ≥ 70 | COc1cc(O[C@H]2C(C)(C)[C@H](NC(=O)c3ccc(N4CCC(CN5CCN(c6ccc(C(=O)N[C@H]7CCC(=O)NC7=O)c(F)c6)CC5)CC4)cc3)C2(C)C)ccc1C#N [Compound 21, 4-(4-((1-(4-(((1R,3R)-3-(4-cyano-3-methoxyphenoxy)-2,2,4,4-tetramethylcyclobutyl)carbamoyl)phenyl)piperidin-4-yl)methyl)piperazin-1-yl)-N—((S)-2,6-dioxopiperidin-3-yl)-2-fluorobenzamide]
13 | < 1 | ≥ 70 | CC1(C)[C@H](NC(=O)c2ccc(C#CC3CCN(C4CCN(c5ccc(C(=O)N[C@H]6CCC(=O)NC6=O)c(F)c5)CC4)CC3)cc2)C(C)(C)[C@H]1Oc1ccc(C#N)c(Cl)c1 [Compound 36, N-[(3S)-2,6-dioxopiperidin-3-yl]-2-fluoro-4-{4-[2-(4-{[(1r,3r)-3-(3-chloro-4-cyanophenoxy)-2,2,4,4-tetramethylcyclobutyl]carbamoyl}phenyl)ethynyl]-[1,4′-bipiperidin]-1′-yl}benzamide]
14 | < 1 | ≥ 70 | Cc1cc(O[C@H]2C(C)(C)[C@H](NC(=O)c3ccc(N4CCO[C@H](CN5CCN(c6ccc(C(=O)N[C@@H]7CCC(=O)NC7=O)c(F)c6)CC5)C4)cc3)C2(C)C)cc(C)c1C#N (single isomer, unassigned) [Compound 49]
15 | < 1 | ≥ 70 | COc1cc(O[C@H]2C(C)(C)[C@H](NC(=O)c3ccc(N4CCC(CN5CCN(c6cnc(C(=O)N[C@H]7CCC(=O)NC7=O)cn6)CC5)CC4)cc3)C2(C)C)ccc1C#N [Compound 37, 5-[4-[[1-[4-[[3-(4-cyano-3-methoxy-phenoxy)-2,2,4,4-tetramethyl-cyclobutyl]carbamoyl]phenyl]-4-piperidyl]methyl]piperazin-1-yl]-N-[(3S)-2,6-dioxo-3-piperidyl]pyrazine-2-carboxamide]
